Measurements published in US10724100B2, “Systems and methods for treating patients having a genetic predisposition to develop prostate cancer” (Institute for Cancer Research, priority 2015, dated 2020).

Test system: peripheral blood lymphocytes (PBLs) of prostate cancer patients and matched controls
Assay: γH2AX foci immunofluorescence in PHA/IL-2-stimulated peripheral blood lymphocytes after DNA damaging agents
Type: cell-based, human
Settings: PBLs from 9 patients and 10 age- and gender-matched controls; 10 μM aphidicolin or 25 μM etoposide; fixed 2 hours later; p=0.0337 (aphidicolin), p=0.007 (etoposide)
Protocol: Peripheral blood lymphocytes (PBLs) were available from 9/12 of the exome sequenced patients and 10 age-matched and gender-matched individuals without a cancer diagnosis or a family history of cancer. […] For analysis of DDR, cells were cultured in RPMI-1640 containing 15% fetal bovine serum (HyClone Laboratories, Logan, Utah), 2 mM L-glutamine (Life Technologies, Grand Island, N.Y.), 50 μM 2-mercaptoethanol (Sigma-Aldrich, St. Louis, Mo.), 0.2 units human recombinant insulin (Sigma) per ml, 50 units penicillin and 50 mg streptomycin per ml (complete RPMI), and then stimulated with phytohemagglutinin (PHA)-M (Life Technologies, Grand Island, N.Y.) and recombinant human interleukin 2 (IL-2) (NCI Preclinical Repository) for 72 hours. […] For immunofluorescence, cells were allowed to attach to poly-d-lysine-coated 96-well plates, stained with anti-γH2AX antibody (#05-636, Millipore, Temecula, Calif.). Sixteen images per well were acquired at 20× (with each image acquired in 2 channels to detect γH2AX with TRITC and total DNA with DAPI) utilizing the ImageXpress micro automated microscope (Molecular Devices, Sunnyvale, Calif.) driven by MetaXpress software. […]

C[C@@]1(CO)[C@H](O)CC[C@@]2(C)[C@H]1CC[C@H]1C[C@@H]3C[C@@]12CC[C@]3(O)CO [aphidicolin]
γH2AX induction (nuclear γH2AX foci per cell), cases versus controls: higher magnitude of induction seen in prostate cancer patients
